{"source": "ChEMBL document CHEMBL5126595", "about": "“Identification and anti-tumor evaluation of 3-acyl-indol-based 2,4-diarylaminopyrimidine analogues as potent ALK inhibitors capable of overcoming drug-resistant mutants” (Eur J Med Chem, 2022)", "key": {"[1]": {"target": "ALK tyrosine kinase receptor (Homo sapiens, UniProt Q9UM73, L1196M)", "sequence (Q9UM73 19-1620 L1196M limits assumed)": "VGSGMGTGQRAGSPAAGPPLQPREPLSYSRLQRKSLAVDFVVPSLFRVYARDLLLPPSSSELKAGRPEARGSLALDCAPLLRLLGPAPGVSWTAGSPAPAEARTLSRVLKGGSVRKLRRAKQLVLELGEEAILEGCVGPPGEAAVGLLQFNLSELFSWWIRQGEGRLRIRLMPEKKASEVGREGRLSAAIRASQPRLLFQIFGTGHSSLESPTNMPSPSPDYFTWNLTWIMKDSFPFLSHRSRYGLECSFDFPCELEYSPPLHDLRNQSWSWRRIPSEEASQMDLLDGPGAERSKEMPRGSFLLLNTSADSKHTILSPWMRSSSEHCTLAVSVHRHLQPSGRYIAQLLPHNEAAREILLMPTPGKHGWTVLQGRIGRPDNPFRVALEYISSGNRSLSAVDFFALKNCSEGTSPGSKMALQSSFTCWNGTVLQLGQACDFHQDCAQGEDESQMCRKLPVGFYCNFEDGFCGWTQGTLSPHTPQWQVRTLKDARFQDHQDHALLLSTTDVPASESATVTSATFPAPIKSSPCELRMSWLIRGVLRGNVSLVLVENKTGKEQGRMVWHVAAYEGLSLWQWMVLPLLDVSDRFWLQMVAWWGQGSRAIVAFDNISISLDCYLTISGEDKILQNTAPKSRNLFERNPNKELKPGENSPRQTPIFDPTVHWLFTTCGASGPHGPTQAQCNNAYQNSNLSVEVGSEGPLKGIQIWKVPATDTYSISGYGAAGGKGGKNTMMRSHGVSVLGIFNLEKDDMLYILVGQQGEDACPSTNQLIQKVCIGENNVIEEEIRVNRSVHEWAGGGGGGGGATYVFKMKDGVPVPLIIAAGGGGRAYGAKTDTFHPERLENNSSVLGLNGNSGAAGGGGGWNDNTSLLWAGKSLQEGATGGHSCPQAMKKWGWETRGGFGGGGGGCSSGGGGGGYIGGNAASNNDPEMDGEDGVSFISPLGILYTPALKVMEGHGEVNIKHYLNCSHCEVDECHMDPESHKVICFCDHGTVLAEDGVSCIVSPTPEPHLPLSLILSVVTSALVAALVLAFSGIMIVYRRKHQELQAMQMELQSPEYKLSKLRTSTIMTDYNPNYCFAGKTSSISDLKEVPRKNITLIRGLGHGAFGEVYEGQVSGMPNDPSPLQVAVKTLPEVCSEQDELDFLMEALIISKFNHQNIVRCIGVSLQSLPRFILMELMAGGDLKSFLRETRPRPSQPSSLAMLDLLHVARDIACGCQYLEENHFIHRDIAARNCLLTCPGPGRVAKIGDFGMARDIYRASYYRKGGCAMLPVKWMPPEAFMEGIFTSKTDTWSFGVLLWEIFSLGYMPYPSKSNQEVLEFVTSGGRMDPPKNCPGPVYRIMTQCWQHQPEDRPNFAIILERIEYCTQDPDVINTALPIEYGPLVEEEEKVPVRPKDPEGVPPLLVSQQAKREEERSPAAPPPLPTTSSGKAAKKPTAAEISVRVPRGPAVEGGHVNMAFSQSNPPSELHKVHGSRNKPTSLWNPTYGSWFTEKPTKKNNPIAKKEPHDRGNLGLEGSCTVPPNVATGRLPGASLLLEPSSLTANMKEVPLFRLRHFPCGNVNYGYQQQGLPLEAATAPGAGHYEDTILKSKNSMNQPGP", "assay": "Inhibition of N-terminal GST-tagged human ceritinib-resistant ALK L1196M mutant (1058 to 1620 residues) cytoplasmic domain expressed in baculovirus infected Sf21 cells incubated for 1 hrs in the presence of ATP by mobility shift assay"}, "NCI-H2228 [2]": {"tested_on": "NCI-H2228", "assay": "Induction of apoptosis in human NCI-H2228 cells assessed as necrotic cells at 50 nM incubated for 48 hrs by AnnexinV-FITC/propidium iodide staining based flow cytometry analysis (reference value: 0.55 %)", "type": "functional"}, "BaF3": {"tested_on": "BaF3", "assay": "Antiproliferative activity IL3 […] Ba/F3 cells assessed as inhibition of cell growth incubated for 72 hrs by MTT assay", "type": "functional, cell-based", "details": "Mus musculus, BaF3, 72 h"}, "[3]": {"assay": "Potency index, ratio of test compound IC50 to ceritinib IC50 antiproliferative activity […] EML4-ALK-G1202R cells assessed as inhibition of cell growth incubated for 72 hrs by MTT assay", "type": "functional"}, "NCI-H1581": {"tested_on": "NCI-H1581", "assay": "Antiproliferative activity against human NC-H1581 cells assessed as inhibition of cell growth incubated for 72 hrs by MTT assay", "type": "functional, cell-based", "details": "NCI-H1581, 72 h"}, "[4]": {"assay": "Antiproliferative activity against human HELF cells assessed as inhibition of cell growth incubated for 72 hrs by MTT assay", "type": "toxicity, cell-based"}, "[5]": {"assay": "Metabolic stability in Sprague-Dawley rat liver microsomes assessed as half-life at 10 uM preincubated for 5 mins in the presence of NADPH followed by microsomal addition and measured upto 60 mins by HPLC analysis", "type": "ADME, Microsome", "details": "time < 65 min"}, "[6]": {"target": "ALK tyrosine kinase receptor (Homo sapiens, UniProt Q9UM73)", "sequence (Q9UM73 19-1620 limits assumed)": "as the sequence (Q9UM73 19-1620 L1196M limits assumed) above, with M1178L counted along it", "assay": "Inhibition of ALK downstream signalling in human NCI-H2228 cells assessed as reduction in phosphorylated ERK level measured after 24 hrs by Western blot analysis", "type": "cell-based", "details": "dose 25-100 nM, DDE = dose-dependent effect"}, "NCI-H2228 [7]": {"tested_on": "NCI-H2228", "assay": "Inhibition of colony formation in human NCI-H2228 cells assessed as reduction in colony area at 100 nM incubated for 3 day by crystal violet staining based assay", "type": "functional", "details": "NCI-H2228, 72 h"}, "NCI-H2228 [8]": {"tested_on": "NCI-H2228", "assay": "Inhibition of cell migration in human NCI-H2228 cells at 10 nM measured at 24 hrs by inverted microscopic based cell scratch assay relative to control", "type": "functional"}, "NCI-H2228 [9]": {"tested_on": "NCI-H2228", "assay": "Induction of apoptosis in human NCI-H2228 cells assessed as chromatin condensation by measuring brilliant blue fluorescence at 25 to 100 nM incubated for 48 hrs by Hoechst 33342 staining based fluorescence microscopic analysis", "type": "functional, cell-based", "details": "dose 25-100 nM"}, "NCI-H2228 [10]": {"tested_on": "NCI-H2228", "assay": "Induction of apoptosis in human NCI-H2228 cells assessed as nuclei fragmentation by measuring brilliant blue fluorescence at 25 to 100 nM incubated for 48 hrs by Hoechst 33342 staining based fluorescence microscopic analysis", "type": "functional, cell-based", "details": "dose 25-100 nM"}, "NCI-H2228 [11]": {"tested_on": "NCI-H2228", "assay": "Induction of apoptosis in human NCI-H2228 cells assessed as solidified nuclei at 25 to 100 nM incubated for 48 hrs by Hoechst 33342 staining based fluorescence microscopic analysis", "type": "functional, cell-based", "details": "dose 25-100 nM"}, "NCI-H2228 [12]": {"tested_on": "NCI-H2228", "assay": "Induction of apoptosis in human NCI-H2228 cells assessed as viable cells at 50 nM incubated for 48 hrs by AnnexinV-FITC/propidium iodide staining based flow cytometry analysis (reference value: 92.3 %)", "type": "functional", "details": "read-out: Activity"}, "NCI-H2228 [13]": {"tested_on": "NCI-H2228", "assay": "Induction of apoptosis in human NCI-H2228 cells assessed as early apoptotic cells at 50 nM incubated for 48 hrs by AnnexinV-FITC/propidium iodide staining based flow cytometry analysis (reference value: 2.45 %)", "type": "functional"}, "NCI-H2228 [14]": {"tested_on": "NCI-H2228", "assay": "Induction of apoptosis in human NCI-H2228 cells assessed as viable cells at 25 nM incubated for 48 hrs by AnnexinV-FITC/propidium iodide staining based flow cytometry analysis (reference value: 92.3 %)", "type": "functional", "details": "read-out: Activity"}, "NCI-H2228 [15]": {"tested_on": "NCI-H2228", "assay": "Induction of apoptosis in human NCI-H2228 cells assessed as late apoptotic cells at 25 nM incubated for 48 hrs by AnnexinV-FITC/propidium iodide staining based flow cytometry analysis (reference value: 4.72 %)", "type": "functional"}, "NCI-H2228 [16]": {"tested_on": "NCI-H2228", "assay": "Induction of apoptosis in human NCI-H2228 cells assessed as necrotic cells at 25 nM incubated for 48 hrs by AnnexinV-FITC/propidium iodide staining based flow cytometry analysis (reference value: 0.55 %)", "type": "functional"}, "NCI-H2228 [17]": {"tested_on": "NCI-H2228", "assay": "Induction of apoptosis in human NCI-H2228 cells assessed as late apoptotic cells at 100 nM incubated for 48 hrs by AnnexinV-FITC/propidium iodide staining based flow cytometry analysis (reference value: 4.72 %)", "type": "functional"}, "NCI-H2228 [18]": {"tested_on": "NCI-H2228", "assay": "Induction of apoptosis in human NCI-H2228 cells assessed as total apoptotic cells at 100 nM incubated for 48 hrs by AnnexinV-FITC/propidium iodide staining based flow cytometry analysis", "type": "functional"}, "NCI-H2228 [19]": {"tested_on": "NCI-H2228", "assay": "Induction of cell cycle arrest in human NCI-H2228 cells assessed as increase in G1 phase cells at 25 nM incubated for 48 hrs by PI/RNase staining based flow cytometry analysis (reference value: 49.72 %)", "type": "functional"}, "NCI-H2228 [20]": {"tested_on": "NCI-H2228", "assay": "Induction of cell cycle arrest in human NCI-H2228 cells assessed as increase in G1 phase cells at 50 nM incubated for 48 hrs by PI/RNase staining based flow cytometry analysis (reference value: 49.72 %)", "type": "functional"}, "NCI-H2228 [21]": {"tested_on": "NCI-H2228", "assay": "Induction of cell cycle arrest in human NCI-H2228 cells assessed as decrease in S phase cells at 50 nM incubated for 48 hrs by PI/RNase staining based flow cytometry analysis (reference value: 34.90 %)", "type": "functional", "design": "scale not given: the % may be the effect or the level left"}, "NCI-H2228 [22]": {"tested_on": "NCI-H2228", "assay": "Induction of cell cycle arrest in human NCI-H2228 cells assessed as decrease in G2 phase cells at 50 nM incubated for 48 hrs by PI/RNase staining based flow cytometry analysis (reference value: 15.38 %)", "type": "functional", "design": "scale not given: the % may be the effect or the level left"}, "NCI-H2228 [23]": {"tested_on": "NCI-H2228", "assay": "Induction of cell cycle arrest in human NCI-H2228 cells assessed as decrease in S phase cells at 100 nM incubated for 48 hrs by PI/RNase staining based flow cytometry analysis (reference value: 34.90 %)", "type": "functional", "design": "scale not given: the % may be the effect or the level left"}, "NCI-H2228 [24]": {"tested_on": "NCI-H2228", "assay": "Induction of cell cycle arrest in human NCI-H2228 cells assessed as decrease in G2 phase cells at 100 nM incubated for 48 hrs by PI/RNase staining based flow cytometry analysis (reference value: 15.38 %)", "type": "functional", "design": "scale not given: the % may be the effect or the level left"}, "[25]": {"assay": "Half-life in Sprague-Dawley rat at 10 mg/kg, po by LC-MS/MS analysis", "type": "ADME, organism-based", "details": "in vivo"}, "[26]": {"assay": "AUC (0 to t) in Sprague-Dawley rat at 2 mg/kg, iv by LC-MS/MS analysis", "type": "ADME, organism-based", "design": "dose 2 mg/kg, route iv", "details": "in vivo"}, "[27]": {"assay": "MRT in Sprague-Dawley rat at 10 mg/kg, po by LC-MS/MS analysis", "type": "ADME, organism-based", "details": "in vivo"}, "[28]": {"assay": "Volume of distribution at steady state in Sprague-Dawley rat at 2 mg/kg, iv by LC-MS/MS analysis", "type": "ADME, organism-based", "details": "in vivo, read-out: Vdss"}, "NCI-H2228 [29]": {"tested_on": "NCI-H2228", "assay": "Antitumor activity against human NCI-H2228 cells xenografted in BALB/c nude mouse assessed as tumor regression at 25 mg/kg, IG administered every 2 days for 4 times", "type": "functional, organism-based", "details": "time 8.0 day"}, "MCF7": {"tested_on": "MCF7", "assay": "cells", "details": "Homo sapiens, MCF7, 72 h", "description": "Antiproliferative activity against human MCF7 cells assessed as inhibition of cell growth incubated for 72 hrs by MTT assay"}, "HCT-116": {"tested_on": "HCT-116", "assay": "cells", "details": "Homo sapiens, HCT-116, 72 h", "description": "Antiproliferative activity against human HCT-116 cells assessed as inhibition of cell growth incubated for 72 hrs by MTT assay"}, "Hep 3B2": {"tested_on": "Hep 3B2", "assay": "cells", "details": "Homo sapiens, Hep3B, 72 h", "description": "Antiproliferative activity against human Hep3B cells assessed as inhibition of cell growth incubated for 72 hrs by MTT assay"}}, "note": "Calls of active or inactive are those of the source. No cut-off for these calls is given here.", "data": [{"compound": "CNC(=O)c1ccccc1Nc1nc(Nc2ccc3c(C(=O)N(C)C)c(C)[nH]c3c2)ncc1Cl", "values": [{"measurement": "IC50", "setting": "[1]", "result": 3.7, "unit": "nM"}, {"measurement": "Activity", "setting": "NCI-H2228 [2]", "result": 1.66, "unit": "%"}, {"measurement": "IC50", "setting": "BaF3", "result": "> 1000", "unit": "nM"}, {"measurement": "Ratio IC50", "setting": "[3]", "result": 61}, {"measurement": "IC50", "setting": "NCI-H1581", "result": 957, "unit": "nM"}, {"measurement": "IC50 at 72 h", "setting": "[4]", "result": "> 10000", "unit": "nM"}, {"measurement": "half-life at 10 µM", "setting": "[5]", "result": 0.603, "unit": "h"}, {"measurement": "inhibition", "setting": "[6]", "result": "Dde"}, {"measurement": "inhibition at 0.1 µM", "setting": "NCI-H2228 [7]", "result": 100, "unit": "%"}, {"measurement": "inhibition at 0.01 µM", "setting": "NCI-H2228 [8]", "result": 3.6, "unit": "%"}, {"measurement": "Activity", "setting": "NCI-H2228 [9]", "result": "Active"}, {"measurement": "Activity", "setting": "NCI-H2228 [10]", "result": "Active"}, {"measurement": "Activity", "setting": "NCI-H2228 [11]", "result": "Active"}, {"measurement": "viability at 0.05 µM", "setting": "NCI-H2228 [12]", "result": 74.4, "unit": "%"}, {"measurement": "Activity", "setting": "NCI-H2228 [13]", "result": 7.44, "unit": "%"}, {"measurement": "viability at 0.025 µM", "setting": "NCI-H2228 [14]", "result": 84.1, "unit": "%"}, {"measurement": "Activity", "setting": "NCI-H2228 [15]", "result": 10.5, "unit": "%"}, {"measurement": "Activity", "setting": "NCI-H2228 [16]", "result": 1.68, "unit": "%"}, {"measurement": "Activity", "setting": "NCI-H2228 [17]", "result": 23, "unit": "%"}, {"measurement": "Activity", "setting": "NCI-H2228 [18]", "result": 31.7, "unit": "%"}, {"measurement": "Activity", "setting": "NCI-H2228 [19]", "result": 53.03, "unit": "%"}, {"measurement": "Activity", "setting": "NCI-H2228 [20]", "result": 54.44, "unit": "%"}, {"measurement": "Activity", "setting": "NCI-H2228 [21]", "result": 32.28, "unit": "%"}, {"measurement": "Activity", "setting": "NCI-H2228 [22]", "result": 13.28, "unit": "%"}, {"measurement": "Activity", "setting": "NCI-H2228 [23]", "result": 29.32, "unit": "%"}, {"measurement": "Activity", "setting": "NCI-H2228 [24]", "result": 12.18, "unit": "%"}, {"measurement": "half-life", "setting": "[25]", "result": 4.1, "unit": "h"}, {"measurement": "AUC(0-t)", "setting": "[26]", "result": 879, "unit": "ng·h/mL"}, {"measurement": "MRT", "setting": "[27]", "result": 6.6, "unit": "h"}, {"measurement": "Vd", "setting": "[28]", "result": 7.9, "unit": "L/kg"}, {"measurement": "Activity", "setting": "NCI-H2228 [29]", "result": "Active"}, {"measurement": "IC50", "setting": "MCF7", "result": 2160, "unit": "nM"}, {"measurement": "IC50", "setting": "HCT-116", "result": 1340, "unit": "nM"}, {"measurement": "IC50", "setting": "Hep 3B2", "result": 59, "unit": "nM"}]}]}
